Measured values from PubChem BioAssay AID179 (DTP/NCI, 2004).
Activity calls are given as the source filed them.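 How the source made its calls: active means compounds giving half or more protection of infected cells from virus-caused growth loss, again on retest; inactive means the rest.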

Tested on: CEM cells HIV-1 protection, formazan growth assay
Assay: NCI AIDS Antiviral Assay
Conditions: for IC50: measured here: growth of uninfected CEM cells
Method in brief: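 Protection of CEM cells against HIV-1 was scored from cell growth (soluble formazan) across five concentrations, with parallel uninfected cells. Lack of protection may reflect toxicity.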

| SMILES | EC50 [µM] | IC50 [µM] | outcome |
| --- | --- | --- | --- |
| CCOP(=O)(OCC)/C(C#N)=C/c1ccc(Br)cc1 | > 275 | 162 |  |
| c1ncn(C23C4C5C6C4C2C6C53)n1 (stereo unspecified) | > 200 | > 200 |  |
| CC(=O)OCc1ncccc1C(OC(C)=O)OC(C)=O | > 891 | > 891 |  |
| O=C(NC1CCN(Cc2ccccc2)CC1)c1cccc(I)c1 | > 200 | 33.9 |  |
| CC1C(=NO)C(C)C(c2ccccc2)N(N=O)C1c1ccccc1 (stereo unspecified) | > 200 | > 200 |  |
| O=C(C=Nc1ccccc1C(=O)[O-])c1ccco1.O=C(C=Nc1ccccc1C(=O)[O-])c1ccco1.[Co+2] | > 1.38 | > 1.38 |  |
| COC(=O)c1cc(C(=CCCCCCl)c2cc(Cl)c(OC)c(C(=O)OC)c2)cc(Cl)c1OC | 29.5 | > 200 |  |
| OC1C2C3CCC(C3)C2C(O)C2C3CCC(C3)C12 (stereo unspecified) | > 200 | > 200 |  |
| [N-]=[N+]=NC1CC(n2cc(Cc3ccccc3)c(N)nc2=O)OC1CO (stereo unspecified) | > 724 | > 724 |  |
| CCCC(=O)O[C@H]1[C@@H](OC(C)=O)C/C(C)=C\[C@@H]2OC(=O)[C@]3(C)OC23[C@@H](O)C2C3(C)OC3CC(OC(C)=O)[C@@]21C (stereo partly specified) | > 117 | 32.4 |  |
| Cc1cn(C2CCC3(CO)CC23)c(=O)[nH]c1=O (stereo unspecified) | > 50.1 | > 50.1 |  |
| CC(=O)Nc1c(S(=O)(=O)c2ccccc2)c(C)c(C)n1CCN(C)C | > 200 | > 200 |  |
| Cc1cc(C)c(C2=[N+]([O-])ON3CCc4ccccc4C23)c(C)c1 (stereo unspecified) | > 115 | > 115 |  |
| CSc1ncc2c(C#N)c3ccccn3c(=O)c2n1 | > 200 | > 200 |  |
| COc1cc2nncc(SCc3ccc(Cl)cc3)c2cc1OC | > 77.6 | > 77.6 |  |
| COC(=O)c1ccc(C)cc1C1CN=NC12Cc1cc(C)c(C)cc1C2=O (stereo unspecified) | > 200 | 22.4 |  |
| O=C1c2ccccc2CC12Cc1ccccc1C2 | > 200 | 69.2 |  |
| CC(C)=CCN1Cc2cc(Cl)cc3[nH]c(=S)n(c23)CC1C (stereo unspecified) |  | 26.9 | active |

| SMILES | EC50 [µM] | IC50 [µM] | outcome |
| --- | --- | --- | --- |
| Cc1cc(S(=O)(=O)Nc2nnc3c4c(C)csc4ncn23)c(S)cc1Cl | > 200 | 110 |  |
| Cn1c(=O)c2c(nc3n2CCC(=O)N3CCCCl)n(C)c1=O | > 200 | 166 |  |
| FC(F)(Oc1ccccc1)c1nc2ccccc2o1 | > 200 | 64.6 |  |
| COc1cc2c(oc(=O)c3c4occc4cc(OC)c23)c2cccc(OCc3ccccc3)c12 | > 1.15 | > 1.15 |  |
| Cc1cc(-c2cc(C)c(N)c(S(=O)(=O)O)c2)cc(S(=O)(=O)O)c1N |  |  | inactive |
| NC(CSS(=O)(=O)O)=NCCc1ccc(O)cc1 | > 200 | > 200 |  |
| N=C(N)SC12CC3CC(CC(C3)C1)C2 | > 200 | 138 |  |
| Cc1ccc(SSc2ccc(C)cc2C(=O)O)c(C(=O)O)c1 | > 200 | > 200 |  |
| CC(=S)N/C=C(/c1ccc(Cl)cc1Cl)S(=O)(=O)Cc1ccc(Cl)cc1Cl | > 100 | > 100 |  |
| O=Cc1ccc2c(c1I)OCO2 | > 67.6 | 38.9 |  |
| COc1ccc(NC(=O)C(=O)NNC(=O)c2sc(NNC(C)=O)nc2C)c([N+](=O)[O-])c1 | > 30.2 | > 30.2 |  |
| CCN1C(=O)N(C)C(O)c2c1nc1ccccn1c2=O (stereo unspecified) | > 182 | 11.5 |  |
| CC(C)CC(C#N)C(N)=O (stereo unspecified) | > 200 | > 200 |  |
| C[N+](C)(C)CC(CC(=O)[O-])C1CC1 (stereo unspecified) | > 1350 | > 1350 |  |
| COc1ccc(/C(=N/O)c2ccccc2-c2nc3ccccc3c(=O)n2-c2ccc(S(=O)(=O)Nc3ccccn3)cc2)cc1C | > 100 | 63.1 |  |
| CCCc1cc(=O)oc2c3c(cc(OC)c12)O[C@H](C)C(C)[C@H]3O (stereo partly specified) | > 200 | 51.3 |  |
| COc1nc2ccc(CNc3ccc(C(=O)O)cc3)cc2nc1OC | > 200 | > 200 |  |
| Oc1ccc(Cc2nccc3cc(O)c(O)cc23)cc1O | > 200 | 29.5 |  |
